Measurements reported in ChEMBL document CHEMBL3877302, “Design and Synthesis of a New Series of 4-Heteroarylamino-1'-azaspiro[oxazole-5,3'-bicyclo[2.2.2]octanes as α7 Nicotinic Receptor Agonists. 1. Development of Pharmacophore and Early Structure-Activity Relationship” (J Med Chem, 2016).
Activity calls are given as the source filed them. The rule behind the calls is not given here.

Key:
[1] = molecular target: T1, Neuronal acetylcholine receptor subunit alpha-7 (Rattus norvegicus, UniProt Q05941); assay: Agonist activity at rat alpha7 nAChR expressed in HEK293 cells co-expressing human RIC3 measured for 2 mins by FLIPR assay; type: cell-based
[2] = Selectivity ratio of IC50 for human 5-HT3A expressed in HEK293 cells to EC50 for rat alpha7 nAChR expressed in HEK293 cells co-expressing human RIC3; type: ADME, cell-based
[3] = molecular target: T1, Neuronal acetylcholine receptor subunit alpha-7; assay: Partial agonist activity at rat alpha7 nAChR expressed in HEK293 cells co-expressing human RIC3 at holding potential of -90 mV by whole-cell voltage clamp technique; type: cell-based
[4] = molecular target: T2, 5-hydroxytryptamine receptor 3A (Homo sapiens, UniProt P46098); assay: Antagonist activity at human 5-HT3A expressed in HEK293 cells assessed as reduction in acetylcholine-induced activity preincubated for 30 mins followed by addition of acetylcholine measured for 2 mins by Fluo-4AM dye based FLIPR assay; type: cell-based
T2 sequence (P46098 whole entry): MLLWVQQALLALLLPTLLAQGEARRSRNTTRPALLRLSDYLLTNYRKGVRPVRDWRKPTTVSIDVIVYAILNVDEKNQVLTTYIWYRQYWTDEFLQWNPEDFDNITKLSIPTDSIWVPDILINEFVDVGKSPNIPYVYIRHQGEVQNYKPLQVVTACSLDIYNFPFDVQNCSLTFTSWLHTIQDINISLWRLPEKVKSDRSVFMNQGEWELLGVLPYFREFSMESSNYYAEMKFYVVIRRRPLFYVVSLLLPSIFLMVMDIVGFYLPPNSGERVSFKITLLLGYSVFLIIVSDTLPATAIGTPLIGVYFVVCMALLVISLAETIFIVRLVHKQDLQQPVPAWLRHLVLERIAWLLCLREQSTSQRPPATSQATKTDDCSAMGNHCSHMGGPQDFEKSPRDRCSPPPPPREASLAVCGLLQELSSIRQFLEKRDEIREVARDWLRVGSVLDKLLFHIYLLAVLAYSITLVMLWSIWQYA

[5] = Drug uptake in Wistar rat brain at 10 mg/kg, sc measured after 30 mins by LC-MS/MS analysis; type: ADME, organism-based; conditions: read-out: Drug uptake
[6] = molecular target: Voltage-gated inwardly rectifying potassium channel KCNH2 (Homo sapiens, UniProt Q12809); assay: Inhibition of human ERG by patch clamp assay
[7] = molecular target: T1, Neuronal acetylcholine receptor subunit alpha-7; assay: Displacement of [125I]Tyr54-alpha-bungarotoxin from rat alpha7 nAChR expressed in HEK293 cell membranes co-expressing human RIC3 measured after 2 hrs by gamma counting method
[8] = Selectivity ratio of IC50 for human 5-HT3A expressed in HEK293 cells to EC50 for rat alpha3beta4 nAChR expressed in HEK293 cells; type: ADME, cell-based
[9] = molecular target: Neuronal acetylcholine receptor; alpha4/beta2 (Rattus norvegicus, UniProt P09483+P12390); assay: Agonist activity at rat alpha4beta2 nAChR expressed in HEK293 cells for 2 mins by FLIPR assay; type: cell-based
[10] = Metabolic stability in rat microsomes assessed as compound remaining measured after 10 mins; type: ADME, Microsome; conditions: read-out: Stability
[11] = Selectivity ratio of IC50 for human 5-HT3A expressed in HEK293 cells to EC50 for rat alpha4beta2 nAChR expressed in HEK293 cells; type: ADME, cell-based
[12] = molecular target: Nicotinic acetylcholine receptor alpha-1/beta-1/delta/epsilon (Rattus norvegicus, UniProt P09660+P25108+P25109+P25110); assay: Agonist activity at rat alpha1beta1deltaepsilon nAChR expressed in HEK293 cells for 2 mins by FLIPR assay; type: cell-based
[13] = Ratio of drug level in Wistar rat brain to plasma at 10 mg/kg, sc; type: ADME, organism-based; conditions: read-out: BPR
[14] = Metabolic stability in mouse microsomes assessed as compound remaining measured after 10 mins; type: ADME, Microsome; conditions: read-out: Stability
[15] = Plasma concentration in Wistar rat at 10 mg/kg, sc measured after 30 mins by LC-MS/MS analysis; type: ADME, organism-based
Mus musculus = assay: Cognitive enhancing effect in C57Bl/6 mouse at 3 and 10 mg/kg, sc administered 30 mins prior to training measured after 24 hrs by novel recognition assay; type: functional, organism-based
[16] = Metabolic stability in human microsomes assessed as compound remaining measured after 10 mins; type: ADME, Microsome; conditions: read-out: Stability
[17] = Selectivity ratio of IC50 for human 5-HT3A expressed in HEK293 cells to EC50 for rat alpha1beta1deltaepsilon nAChR expressed in HEK293 cells; type: ADME, cell-based
[18] = Oral bioavailability in rat at 10 mg/kg; type: ADME, organism-based; conditions: in vivo
[19] = molecular target: Neuronal acetylcholine receptor; alpha3/beta4 (Rattus norvegicus, UniProt P04757+P12392); assay: Agonist activity at rat alpha3beta4 nAChR expressed in HEK293 cells for 2 mins by FLIPR assay; type: cell-based
[20] = Clearance in rat; type: ADME; conditions: in vivo
5-HT3A = molecular target: T3, 5-HT3A (Homo sapiens, UniProt P46098); assay: Antagonist activity at 5-HT3A (unknown origin) at 10 uM
T3 sequence (P46098 whole entry): T2 sequence (P46098 whole entry)

T1 sequence (Q05941 whole entry): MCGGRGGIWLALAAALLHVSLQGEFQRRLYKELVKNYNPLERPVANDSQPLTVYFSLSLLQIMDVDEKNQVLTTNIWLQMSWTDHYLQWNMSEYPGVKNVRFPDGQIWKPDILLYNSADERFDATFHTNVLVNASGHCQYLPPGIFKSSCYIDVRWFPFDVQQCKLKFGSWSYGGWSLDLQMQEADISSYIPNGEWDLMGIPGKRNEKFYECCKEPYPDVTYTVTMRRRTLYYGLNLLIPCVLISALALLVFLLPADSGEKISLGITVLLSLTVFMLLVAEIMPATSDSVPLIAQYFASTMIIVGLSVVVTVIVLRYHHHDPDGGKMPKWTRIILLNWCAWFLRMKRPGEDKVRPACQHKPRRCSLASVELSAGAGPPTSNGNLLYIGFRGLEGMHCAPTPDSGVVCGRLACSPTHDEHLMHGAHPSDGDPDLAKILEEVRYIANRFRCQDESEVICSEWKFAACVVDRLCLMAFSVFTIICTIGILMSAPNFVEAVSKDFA
Sequence of Neuronal acetylcholine receptor; alpha3/beta4 (P04757 whole entry): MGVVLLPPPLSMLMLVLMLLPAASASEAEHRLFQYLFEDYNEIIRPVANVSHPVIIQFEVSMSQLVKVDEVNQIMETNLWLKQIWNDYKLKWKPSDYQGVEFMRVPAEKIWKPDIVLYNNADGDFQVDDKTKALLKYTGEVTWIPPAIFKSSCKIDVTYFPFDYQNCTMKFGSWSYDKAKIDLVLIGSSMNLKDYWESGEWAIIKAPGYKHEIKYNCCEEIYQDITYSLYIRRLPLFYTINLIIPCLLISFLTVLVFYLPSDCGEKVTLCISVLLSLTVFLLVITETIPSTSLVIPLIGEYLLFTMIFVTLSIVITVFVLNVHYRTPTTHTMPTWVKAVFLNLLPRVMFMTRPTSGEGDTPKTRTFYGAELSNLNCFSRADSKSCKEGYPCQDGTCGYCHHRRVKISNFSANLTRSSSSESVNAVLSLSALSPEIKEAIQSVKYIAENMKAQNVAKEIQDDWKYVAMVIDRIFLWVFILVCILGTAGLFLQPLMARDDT
Sequence of Neuronal acetylcholine receptor; alpha3/beta4 (P12392 whole entry): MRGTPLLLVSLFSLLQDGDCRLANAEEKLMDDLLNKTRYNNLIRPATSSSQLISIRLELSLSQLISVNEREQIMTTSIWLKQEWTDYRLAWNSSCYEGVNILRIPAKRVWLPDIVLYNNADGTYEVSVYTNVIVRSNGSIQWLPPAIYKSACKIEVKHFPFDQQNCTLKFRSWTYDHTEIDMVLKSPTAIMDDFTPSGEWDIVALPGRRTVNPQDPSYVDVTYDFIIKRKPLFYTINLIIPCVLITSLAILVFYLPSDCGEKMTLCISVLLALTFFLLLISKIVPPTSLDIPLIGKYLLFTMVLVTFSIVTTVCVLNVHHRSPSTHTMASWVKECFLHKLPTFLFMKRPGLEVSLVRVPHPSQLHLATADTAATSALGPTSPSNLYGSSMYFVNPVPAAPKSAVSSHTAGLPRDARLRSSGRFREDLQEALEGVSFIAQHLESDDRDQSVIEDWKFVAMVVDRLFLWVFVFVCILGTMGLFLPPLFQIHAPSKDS
Sequence of Nicotinic acetylcholine receptor alpha-1/beta-1/delta/epsilon (P25109 whole entry): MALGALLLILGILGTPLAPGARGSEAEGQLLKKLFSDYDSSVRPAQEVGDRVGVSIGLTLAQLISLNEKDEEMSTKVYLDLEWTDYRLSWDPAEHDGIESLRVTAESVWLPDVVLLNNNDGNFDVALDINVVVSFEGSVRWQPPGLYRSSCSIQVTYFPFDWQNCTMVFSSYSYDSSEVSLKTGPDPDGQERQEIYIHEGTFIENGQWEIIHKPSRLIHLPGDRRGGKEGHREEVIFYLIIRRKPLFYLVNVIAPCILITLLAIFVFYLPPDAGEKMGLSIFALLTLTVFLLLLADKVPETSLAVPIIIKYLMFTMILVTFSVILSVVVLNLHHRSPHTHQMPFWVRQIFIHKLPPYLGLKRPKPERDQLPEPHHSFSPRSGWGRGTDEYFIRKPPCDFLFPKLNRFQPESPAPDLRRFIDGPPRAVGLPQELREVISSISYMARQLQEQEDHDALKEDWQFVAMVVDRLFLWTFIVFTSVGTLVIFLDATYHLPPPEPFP
Sequence of Nicotinic acetylcholine receptor alpha-1/beta-1/delta/epsilon (P25108 whole entry): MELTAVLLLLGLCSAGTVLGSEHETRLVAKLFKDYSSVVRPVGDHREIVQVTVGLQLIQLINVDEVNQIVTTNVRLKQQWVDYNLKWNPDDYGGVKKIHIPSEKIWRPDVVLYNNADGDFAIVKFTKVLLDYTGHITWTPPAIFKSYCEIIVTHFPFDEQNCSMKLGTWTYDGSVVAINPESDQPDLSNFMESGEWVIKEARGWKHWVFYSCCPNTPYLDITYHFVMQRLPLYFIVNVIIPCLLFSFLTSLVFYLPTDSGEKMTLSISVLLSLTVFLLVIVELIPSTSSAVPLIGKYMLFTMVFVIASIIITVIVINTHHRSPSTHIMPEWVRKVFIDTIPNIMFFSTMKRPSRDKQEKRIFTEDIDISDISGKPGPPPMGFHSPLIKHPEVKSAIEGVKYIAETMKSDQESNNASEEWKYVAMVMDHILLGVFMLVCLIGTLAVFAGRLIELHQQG
Sequence of Nicotinic acetylcholine receptor alpha-1/beta-1/delta/epsilon (P25110 whole entry): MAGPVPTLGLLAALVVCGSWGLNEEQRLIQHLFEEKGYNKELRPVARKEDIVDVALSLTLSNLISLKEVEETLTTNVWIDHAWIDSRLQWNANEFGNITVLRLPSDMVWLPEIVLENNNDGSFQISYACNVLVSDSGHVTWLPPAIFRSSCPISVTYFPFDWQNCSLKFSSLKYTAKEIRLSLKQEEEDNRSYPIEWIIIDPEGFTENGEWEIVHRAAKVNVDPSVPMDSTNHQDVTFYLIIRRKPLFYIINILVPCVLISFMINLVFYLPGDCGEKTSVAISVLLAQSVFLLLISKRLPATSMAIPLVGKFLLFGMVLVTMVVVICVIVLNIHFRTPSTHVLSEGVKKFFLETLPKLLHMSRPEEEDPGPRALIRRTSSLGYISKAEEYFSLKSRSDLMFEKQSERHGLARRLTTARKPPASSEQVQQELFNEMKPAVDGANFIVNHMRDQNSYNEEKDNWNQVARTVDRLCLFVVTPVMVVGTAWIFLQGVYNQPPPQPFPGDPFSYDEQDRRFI
Sequence of Nicotinic acetylcholine receptor alpha-1/beta-1/delta/epsilon (P09660 whole entry): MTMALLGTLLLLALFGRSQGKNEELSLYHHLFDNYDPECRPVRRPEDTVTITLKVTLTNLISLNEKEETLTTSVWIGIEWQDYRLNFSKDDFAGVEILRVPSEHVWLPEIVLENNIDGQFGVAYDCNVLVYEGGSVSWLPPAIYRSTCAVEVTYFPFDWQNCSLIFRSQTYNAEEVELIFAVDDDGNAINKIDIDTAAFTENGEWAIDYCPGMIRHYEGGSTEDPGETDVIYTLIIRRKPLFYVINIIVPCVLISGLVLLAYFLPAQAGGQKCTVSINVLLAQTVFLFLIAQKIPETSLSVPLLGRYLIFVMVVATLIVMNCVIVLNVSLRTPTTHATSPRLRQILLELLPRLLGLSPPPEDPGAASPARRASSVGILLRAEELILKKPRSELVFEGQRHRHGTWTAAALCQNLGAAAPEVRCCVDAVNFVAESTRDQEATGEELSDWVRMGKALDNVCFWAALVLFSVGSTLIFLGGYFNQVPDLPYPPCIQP
Sequence of Voltage-gated inwardly rectifying potassium channel KCNH2 (Q12809 whole entry): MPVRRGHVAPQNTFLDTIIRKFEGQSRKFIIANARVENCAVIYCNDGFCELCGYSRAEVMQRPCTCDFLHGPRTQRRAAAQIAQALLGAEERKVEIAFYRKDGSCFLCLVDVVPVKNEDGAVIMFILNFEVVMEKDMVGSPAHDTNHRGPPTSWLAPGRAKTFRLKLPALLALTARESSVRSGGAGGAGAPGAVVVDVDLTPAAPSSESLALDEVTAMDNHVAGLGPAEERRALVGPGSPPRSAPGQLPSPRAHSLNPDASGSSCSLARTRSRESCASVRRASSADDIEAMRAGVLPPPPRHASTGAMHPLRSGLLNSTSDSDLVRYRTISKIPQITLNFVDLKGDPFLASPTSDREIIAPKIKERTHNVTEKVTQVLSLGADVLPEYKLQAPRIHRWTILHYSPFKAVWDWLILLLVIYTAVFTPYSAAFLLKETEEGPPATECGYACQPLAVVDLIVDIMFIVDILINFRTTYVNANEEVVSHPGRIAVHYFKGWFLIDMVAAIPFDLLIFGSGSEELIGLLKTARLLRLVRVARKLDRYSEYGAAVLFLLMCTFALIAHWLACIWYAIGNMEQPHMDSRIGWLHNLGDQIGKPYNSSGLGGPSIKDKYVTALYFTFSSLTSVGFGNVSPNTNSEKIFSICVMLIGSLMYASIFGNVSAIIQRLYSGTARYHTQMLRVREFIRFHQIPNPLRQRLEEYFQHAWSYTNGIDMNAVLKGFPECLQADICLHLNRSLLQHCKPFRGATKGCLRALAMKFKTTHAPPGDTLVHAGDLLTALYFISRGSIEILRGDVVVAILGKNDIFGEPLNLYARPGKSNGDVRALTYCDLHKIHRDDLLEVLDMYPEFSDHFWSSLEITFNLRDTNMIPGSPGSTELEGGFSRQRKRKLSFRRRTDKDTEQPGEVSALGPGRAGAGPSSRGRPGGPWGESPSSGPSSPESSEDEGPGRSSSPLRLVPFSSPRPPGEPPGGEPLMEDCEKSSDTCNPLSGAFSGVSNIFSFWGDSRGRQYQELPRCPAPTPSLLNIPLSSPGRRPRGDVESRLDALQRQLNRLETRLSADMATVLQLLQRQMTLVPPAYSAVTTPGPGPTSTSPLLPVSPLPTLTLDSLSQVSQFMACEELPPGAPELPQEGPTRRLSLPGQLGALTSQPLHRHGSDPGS

| Compound | EC50 [1] | Ratio IC50/EC50 [2] | IC50 [4] | further results |
| --- | --- | --- | --- | --- |
| c1ccc2sc(NC3=NC[C@@]4(CN5CC[C@@H]4C5)O3)nc2c1 | 22 nM | 22 | 480 nM | EC50 [3]: 280 nM |
| COc1ccc2nc(/N=C3/OC4(CN5CCC4CC5)CN3C)sc2c1 (configuration not stated) | > 100000 nM |  | > 100000 nM |  |
| c1ccc2sc(NC3=NCC4(CN5CCC4C5)O3)nc2c1 (racemic) | 260 nM | 0.06 | 35 nM |  |
| c1ccc(-c2ccnc(NC3=NC[C@@]4(CN5CCC4CC5)O3)c2)cc1 |  | 9 to 9.6 | 85 nM |  |
| c1ccc(-c2ccc(NC3=NC[C@@]4(CN5CCC4CC5)O3)nc2)cc1 | 750 nM | 30 | 22000 nM |  |
| c1ccc(-c2cnc(NC3=NCC4(CN5CCC4CC5)O3)s2)cc1 (racemic) | 400 nM | 51 to 750 | 20000 nM |  |
| c1ccc2nc(NC3=NC[C@@]4(CN5CCC4CC5)O3)ccc2c1 | 26 nM | 0.3 | 8 nM |  |
| c1cc(NC2=NCC3(CN4CCC3CC4)O2)ccn1 (racemic) | 11000 nM | 5 | 58000 nM |  |
| COc1cc2nc(NC3=NCC4(CN5CCC4CC5)O3)sc2cc1OC (configuration not stated) | 11000 nM | 3 | 27000 nM |  |
| c1ccc2c(NC3=NC[C@@]4(CN5CCC4CC5)O3)nccc2c1 | 210 nM |  |  |  |
| c1ccc(-c2csc(NC3=NCC4(CN5CCC4CC5)O3)n2)cc1 (racemic) | 450 nM | 0.02 | 11 nM |  |
| COc1ccc2nc(NC3=NC[C@@]4(CN5CCC4CC5)O3)sc2c1 | 140 nM | 66 | 9100 nM | concentration at 0.5 h [5]: 5.3 µM; IC50 [6]: 1300 nM; Ki [7]: 38 to 51 nM; Ratio IC50/EC50 [8]: > 700; EC50 [9]: > 100000 nM; remaining at 10 min [10]: > 60%; Ratio IC50/EC50 [11]: > 700; EC50 [12]: > 100000 nM; Kp [13]: 7; remaining at 10 min [14]: > 60%; concentration at 0.5 h [15]: 0.76 µM; Activity (Mus musculus): Active; remaining at 10 min [16]: > 60%; Ratio IC50/EC50 [17]: > 700; bioavailability [18]: 24%; EC50 [3]: 400 nM; EC50 [19]: > 100000 nM; clearance [20]: 320 mL/min/kg |
| Clc1ccc2nc(NC3=NCC4(CN5CCC4CC5)O3)sc2c1 (configuration not stated) | 150 nM | 53 | 8100 nM |  |
| COc1cccc2sc(NC3=NCC4(CN5CCC4CC5)O3)nc12 (configuration not stated) | 830 nM | 0.02 | 13 nM |  |
| COc1ccc2nc(NC3=NCCC4(CN5CCC4CC5)O3)sc2c1 (configuration not stated) | 3700 nM | 17 | 64000 nM |  |
| c1ccc2sc(NC3=NCC4(CN5CCC[C@@H]4C5)O3)nc2c1 (mixture of isomers) | 290 nM | 3 | 950 nM |  |

| Compound | EC50 [1] | Ratio IC50/EC50 [2] | IC50 [4] | further results |
| --- | --- | --- | --- | --- |
| c1csc(NC2=NCC3(CN4CCC3CC4)O2)n1 (racemic) | 200 nM | 0.1 | 25 nM | EC50 [3]: 1300 nM |
| Cc1ccc2nc(NC3=NCC4(CN5CCC4CC5)O3)sc2c1 (configuration not stated) | 120 nM | 32 | 3800 nM |  |
| O=C1NC[C@@]2(CN3CCC2CC3)O1 |  |  |  | inhibition at 10 µM (5-HT3A): 2.5% |
| c1cncc(/N=C2\NCC3(CN4CCC3CC4)O2)c1 (racemic) | 21000 nM | 0.1 | 2300 nM |  |
| c1ccc2sc(NC3=NC[C@@]4(CN5CCC4CC5)O3)nc2c1 | 21 nM | 1 | 21 nM |  |
| c1nc2cc(NC3=NCC4(CN5CCC4CC5)O3)ccc2s1 (racemic) | 3100 nM | 13 | 41000 nM |  |
| CCOc1ccc2nc(NC3=NCC4(CN5CCC4CC5)O3)sc2c1 (configuration not stated) | 320 nM | 42 | 14000 nM |  |
| c1ccc2sc(NC3=NCC4(CN5CCC4CC5)O3)nc2c1 (racemic) | 20 to 21 nM | 1 to 1.8 | 21 to 36 nM | EC50 [3]: 500 nM |
| COc1ccc2nc(NC3=NC4(CO3)CN3CCC4CC3)sc2c1 (configuration not stated) | 7800 nM | 6 | 47000 nM |  |
| c1ccc2sc(NC3=NC[C@]4(CN5CCC4CC5)O3)nc2c1 | 1300 nM | 6 | 7300 nM |  |
| c1ccc2sc(NC3=NCC4(CN5CCCC4C5)O3)nc2c1 (racemic) | 700 nM | < 0.01 | 7 nM |  |
| COc1ccc2nc(NC3=NCC4(CN5CCC4CC5)O3)sc2c1 (configuration not stated) | 120 nM | 153 | 19000 nM | EC50 [3]: 600 nM |
| COc1ccc2sc(NC3=NCC4(CN5CCC4CC5)O3)nc2c1 (configuration not stated) | 1100 nM | 0.02 | 19 nM |  |
| c1ccc(NC2=NCC3(CN4CCC3CC4)O2)cc1 (racemic) | 5400 nM | 0.04 | 230 nM |  |
| Oc1ccc2nc(NC3=NCC4(CN5CCC4CC5)O3)sc2c1 (configuration not stated) | 980 nM | 11 | 11000 nM |  |
| COc1ccc2nc(NC3=NC[C@]4(CN5CCC4CC5)O3)sc2c1 | 1900 nM | 85 | > 97000 nM |  |
